Our source for the Emax, Kd and EC50 values is patent US5672710A, “Sulfides, sulfoxides and sulfones disubstituted with a tetrahydronaphthalenyl, chromanyl, thiochromanyl or tetrahydroquinolinyl and substituted phenyl or heteroaryl group, having retinoid-like biological activity” (priority 1995, dated 1997).

Assay [1] addresses T1, RARβ (Homo sapiens, UniProt P10826).
T1 construct: expressed in transfected cells; host or cells: CV1
T1 sequence (P10826 1-448 isoform P10826-2): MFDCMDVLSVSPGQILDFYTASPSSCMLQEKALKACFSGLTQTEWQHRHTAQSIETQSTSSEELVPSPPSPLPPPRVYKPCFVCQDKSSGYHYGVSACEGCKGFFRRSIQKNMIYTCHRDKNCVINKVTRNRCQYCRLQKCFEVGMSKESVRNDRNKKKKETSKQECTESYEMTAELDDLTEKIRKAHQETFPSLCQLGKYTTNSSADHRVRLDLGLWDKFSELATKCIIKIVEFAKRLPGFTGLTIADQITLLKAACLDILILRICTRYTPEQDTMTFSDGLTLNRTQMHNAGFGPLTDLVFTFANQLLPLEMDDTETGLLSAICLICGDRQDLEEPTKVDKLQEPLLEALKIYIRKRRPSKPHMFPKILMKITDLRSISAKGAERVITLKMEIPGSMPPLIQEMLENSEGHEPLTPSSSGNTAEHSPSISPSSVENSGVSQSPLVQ
In words: Holoreceptor transactivation assay, RARβ. The conditions noted are these: CV-1; CV1 cells; relative to all trans retinoic acid; read-out: Transactivation Assay Efficacy (% of RA activity), RARβ. The assay is classed as cell-based. From the text:
(§1) A holoreceptor transactivation assay and a ligand binding assay which measure the ability of the compounds of the invention to bind to the several retinoid receptor subtypes, respectively, are described in published PCT Application No. WO W093/11755 (particularly on pages 30-33 and 37-41) published on Jun. 24, 1993, the specification of which is also incorporated herein by reference. A description of the holoreceptor transactivation assay is also provided below.
(§2) CV1 cells (5,000 cells/well) were transfected with an RAR reporter plasmid MTV-TREp-LUC (50 ng) along with one of the […] expression vectors (10 ng) in an automated 96-well format by the calcium phosphate procedure of Heyman et al. Cell 68, 397-406. (8). For RXRα and RXR.GAMMA. transactivation assays, an RXR-responsive reporter plasmid CRBPII-tk-LUC (50 ng) along with the appropriate RXRexpression vectors (10 ng) was used substantially as described by Heyman et al. above, and Allegretto et al. J. Biol. Chem. 268, 26625-26633. For RXRβ transactivation assays, an RXR-responsive reporter plasmid CPRE-tk-LUC ([…]) along with RXRβ expression vector ([…]) was used as described in above. These reporters contain DRI elements from human CRBPII and certain DRI elements from promoter, respectively. (see Mangelsdorf et al. The Retinoids: Biology, Chemistry and Medicine, pp 319-349, Raven Press Ltd., New York and Heyman et al., cited above) (1, 8). A β-galactosidase (50 ng) expression vector was used as an internal control in the transfections to normalize for variations in transfection efficiency. The cells were transfected in triplicate for 6 hours, followed by incubation with retinoids for 36 hours, and the extracts were assayed for luciferase and β-galactosidase activities. The detailed experimental procedure for holoreceptor transactivations has been described in Heyman et al. above, and Allegretto et al. cited above. The results obtained in this assay in connection with examplary compounds in accordance with the present invention are expressed in EC50 numbers, as they are also in the chimeric receptor transactivation assay. The Heyman et al. Cell 68, 397-406, Allegretto et al. J. Biol. Chem. 268, 26625-26633, and Mangelsdorf et al. The Retinoids: Biology, Chemistry and Medicine, pp 319-349, Raven Press Ltd., New York, are expressly incorporated herein by reference. The results of ligand binding assay are expressed in Kd numbers. (See Cheng et al. Biochemical Pharmacology Vol. 22 pp 3099-3108, expressly incorporated herein by reference.)

In assay [2] the target is T2, RARγ (Homo sapiens, UniProt P13631).
T2 construct: expressed in transfected cells; host or cells: CV1
T2 sequence (P13631 1-454): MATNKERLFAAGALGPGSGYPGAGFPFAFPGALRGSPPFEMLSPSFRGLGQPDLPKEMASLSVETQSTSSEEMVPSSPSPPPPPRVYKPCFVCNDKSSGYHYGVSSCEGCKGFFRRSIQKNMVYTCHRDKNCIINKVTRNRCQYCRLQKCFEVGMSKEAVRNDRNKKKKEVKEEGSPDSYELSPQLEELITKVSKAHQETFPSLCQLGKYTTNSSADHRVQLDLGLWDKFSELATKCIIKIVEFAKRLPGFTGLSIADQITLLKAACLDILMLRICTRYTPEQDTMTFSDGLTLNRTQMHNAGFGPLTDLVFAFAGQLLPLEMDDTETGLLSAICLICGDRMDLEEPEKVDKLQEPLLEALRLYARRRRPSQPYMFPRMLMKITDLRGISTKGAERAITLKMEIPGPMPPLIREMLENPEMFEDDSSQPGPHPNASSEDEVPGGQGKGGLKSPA
Kind of assay: Holoreceptor transactivation assay, RARγ. The assay is classed as cell-based. The note with it: CV-1; CV1 cells; relative to all trans retinoic acid; read-out: Transactivation Assay Efficacy (% of RA activity), RARγ.
Source text: as §1, §2

Assay [3] addresses T3, RXRα (Homo sapiens, UniProt P19793).
T3 construct: expressed in transfected cells; host or cells: CV1
T3 sequence (P19793 1-462): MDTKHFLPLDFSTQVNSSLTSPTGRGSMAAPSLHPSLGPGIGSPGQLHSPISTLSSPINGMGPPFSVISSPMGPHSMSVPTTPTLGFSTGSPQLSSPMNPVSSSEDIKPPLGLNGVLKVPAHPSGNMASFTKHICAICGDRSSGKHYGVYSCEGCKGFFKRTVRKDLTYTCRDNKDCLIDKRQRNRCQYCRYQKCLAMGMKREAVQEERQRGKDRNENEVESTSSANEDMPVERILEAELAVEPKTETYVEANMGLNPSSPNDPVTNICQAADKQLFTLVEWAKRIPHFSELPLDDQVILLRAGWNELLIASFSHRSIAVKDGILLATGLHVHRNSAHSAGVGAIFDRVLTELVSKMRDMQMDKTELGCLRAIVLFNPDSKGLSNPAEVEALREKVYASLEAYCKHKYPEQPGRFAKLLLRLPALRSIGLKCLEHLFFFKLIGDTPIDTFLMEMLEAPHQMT
Kind of assay: Holoreceptor transactivation assay, RXRα. The format is cell-based. The conditions noted are these: CV1 cells; for Emax: CV-1, relative to all trans retinoic acid, read-out: Transactivation Assay Efficacy (% of RA activity), RXRα; for EC50: 36 hours.
Source text: as §1, §2

Assay [4] deals with T1, RARβ. In words: Ligand binding assay, RARβ.
Source text: as §1, §2

Assay [5] addresses T2, RARγ. In words: Ligand binding assay, RARγ.
Source text: as §1, §2

The target in assay [6] is T3, RXRα. In words: Ligand binding assay, RXRα.
Source text: as §1, §2

Structures are written as SMILES.

For the molecule `CC1(C)CCC(C)(C)c2cc(Sc3ccc(C(=O)O)cc3)ccc21` [Compound 2], the Emax came out at 66% in assay [1], 37% in assay [2] and 51% in assay [3]. The Kd in assay [4], in assay [5] and in assay [6] was over 1000 nM throughout.

As to `CC1(C)CCC(C)(C)c2cc(S(=O)(=O)c3ccc(C(=O)O)cc3)ccc21` [Compound 5, 4-(5,6,7,8-tetrahydro-5,5,8,8-tetramethyl-2-naphthylsulfonyl)benzoic acid], the Emax in assay [1] worked out at 4%; in assay [2], 0%; in assay [3] it was 32%. Further, in assay [3], the EC50 turned out to be 3000 nM. Besides, the Kd in assay [4], in assay [5] and in assay [6] was over 1000 nM throughout.

Turning to `Cc1cc2c(cc1Sc1ccc(C(=O)O)cc1)C(C)(C)CCC2(C)C` [Compound 7, 4-(5,6,7,8-tetrahydro-3,5,5,8,8-pentamethyl-2-Daphthylthio)benzoic acid], the figures for the Emax in assay [1], in assay [2] and in assay [3] were 4%, 11% and 81%, respectively. The EC50 in assay [3] worked out at 280 nM. In addition, the values for the Kd in assay [4], in assay [5] and in assay [6] were over 1000 nM, over 1000 nM and 296 nM, respectively.

`Cc1cc2c(cc1[S+]([O-])c1ccc(C(=O)O)cc1)C(C)(C)CCC2(C)C` (centres unmarked) [Compound 9, 4-(5,6,7,8-tetrahydro-3,5,5,8,8-pentamethyl-2-naphthylsulfoxy)benzoic acid]: the Emax was 4% in assay [1], 3% in assay [2] and 17% in assay [3]. The dissociation constant (Kd) in assay [4], in assay [5] and in assay [6] was over 1000 nM each time.

Turning to `Cc1cc2c(cc1S(=O)(=O)c1ccc(C(=O)O)cc1)C(C)(C)CCC2(C)C` [Compound 11, 4-(5,6,7,8-tetrahydro-3,5,5,8,8-pentamethyl-2-naphthylsulfonyl)benzoic acid], the Emax in assay [1] was 6%; in assay [2], 0%; in assay [3], 55%. This molecule also yielded an EC50 in assay [3] of 2800 nM. In addition, the Kd in assay [4], in assay [5] and in assay [6] was over 1000 nM throughout.

For `Cc1cc2c(cc1Sc1ccc(C(=O)O)cn1)C(C)(C)CCC2(C)C` [Compound 13], the Emax in assay [1] was determined as 4%; in assay [2] it was 0%; in assay [3], 91%. The same molecule returned an EC50 in assay [3] of 54 nM. Further, the equilibrium dissociation constant (Kd) in assay [4] is over 10000 nM; in assay [5], over 10000 nM; in assay [6], 32 nM.

For the molecule `Cc1cc2c(cc1Sc1ncc(C(=O)O)s1)C(C)(C)CCC2(C)C` [Compound 15, 2-(5,6,7,8-Tetrahydro-3,5,5,8,8-pentamethyl-2-naphthylthio)-5-thiazolecarboxylic acid], the Emax in assay [1] came out at 0%; in assay [2], 7%; in assay [3] it was 85%. In assay [3], this molecule gave an EC50 of 2300 nM. Besides, the Kd in assay [4], in assay [5] and in assay [6] was over 1000 nM in each case.
